Laboratory results reported in patent US20250127168A1, “METHOD FOR PATHOGENS, MICROORGANISMS, AND PARASITES INACTIVATION” (New York Blood Center, Inc., priority 2018, published 2025).

What was measured:
S. epidermidis [1] = assay: Bacterial inactivation in Ringer's solution, colony agar plate count; assay type: cell-based; settings: 100 μM, RT, 1 h treatment
Method: (§1) A panel of G+F and G-bacteria were inactivated in their respective growth medium using compound VI, compound X, and compound XIV. All cells were grown in corresponding media to middle log phase, collected by centrifugation, re-suspended in Ringer's solution (RS), and treated at RT with 100 μM of compound VI, compound X, and compound XIV, which were added to the suspension as 100× concentrate in RS. Controls received RS only. At the end of the incubation, unreacted compound VI, compound X, and compound XIV were neutralized with 10 mM sodium thiophosphate during incubation at RT for 30 min. The viable cells were enumerated using serial dilutions by standard colony agar plate count. Table 1 summarizes the typical results of 1 h treatment of E. coli, P. fluorescens, Y. enterocolitica, B. cereus, S. aureus, and S. epidermidis with compound VI, compound X, and compound XIV.

Y. enterocolitica [2] = assay: as above; assay type: cell-based; settings: 100 μM, RT, 1 h treatment
Method: as §1

E. coli = assay: as above; assay type: cell-based; settings: 100 μM, RT, 1 h treatment
Method: as §1

P. fluorescens [3] = assay: as above; assay type: cell-based; settings: 100 μM, RT, 1 h treatment
Method: as §1

S. aureus = assay: as above; assay type: cell-based; settings: 100 μM, RT, 1 h treatment
Method: as §1

B. cereus [4] = assay: as above; assay type: cell-based; settings: 100 μM, RT, 1 h treatment
Method: as §1

[5] = Storage stability of formulated compounds; assay type: physicochemical
From the text: The solutions of the free bases of the compound of Structure I are alkaline, and can absorb atmospheric carbon dioxide, which can compromise the stability of the solutions and accelerate their hydrolysis or other degradation. The free bases of the compounds of Structure I may be stabilized by addition of small amounts of basic compounds, for example of sodium hydroxide.
The compounds of Structure I can be converted to solid solutions by quick solidification by cooling of their solution in compounds which are solid at room temperature. For example, if compound VI is added, in amount of up to 3% to melted polyethylene glycol, and the resulted solution is cooled quickly, preferably in thin film, a solid solution of compound VI is formed. […] The stability of the solid solutions can be further enhanced by addition of traces of strong bases, as for example, of sodium hydroxide. The preferred solids for the preparing of solid solution of compounds of Structure I have melting points above 40° C. and below 120° C., are well soluble in aqueous media, are neutral in chemical character, and have no adverse effect on the sample to be treated by the process, or on its intended use.

S. epidermidis [6] = assay: Bacterial inactivation in WB, LB and RBCC, growth/no growth; assay type: cell-based; parameters: key: “+” Growth; “−” No growth; settings: 6 h at RT
Method: (§2) Two G− species, Y. enterocolitica and P. fluorescens, both psychrophiles, and two G+ bacteria, S. epidermids and B. cereus, all known blood contaminants, were used in this study. All blood samples were spiked with approximately 0.1% bacterial stock suspension prepared in RS and left for equilibration at RT for 30 min. Freshly grown overnight bacterial cultures were used for each spiking. Compound VI and compound X were added to spiked blood to final concentrations of 100, 250, and 500 μM. Control samples (Ctr) received solvent only. Incubation was carried out at RT for 6 h followed by the addition of an inactivator, 100x Na thiosulfate, and additional incubation at RT for 2 h. After the incubation and quenching, aliquots were taken for serial dilutions and plate drop-counting and the bacterial growth-promoting solution (containing tryptone, peptone, yeast extract and casamino acids) was added to the remaining volumes. The growth/no growth results were confirmed by streaking agar plates.

Y. enterocolitica [7] = assay: as above; assay type: cell-based; parameters: key: “+” Growth; “−” No growth; settings: 6 h at RT
Method: as §2

P. fluorescens [8] = assay: as above; assay type: cell-based; parameters: key: “+” Growth; “−” No growth; settings: 6 h at RT
Method: as §2

B. cereus [9] = assay: as above; assay type: cell-based; parameters: key: “+” Growth; “−” No growth; settings: 6 h at RT
Method: as §2

[10] = test system: Human respiratory syncytial virus (RSV); assay: Viral inactivation, modified plaque assay; assay type: cell-based; settings: 100 μM, RT
Method: Human respiratory syncytial virus (RSV) was inactivated by using Compound VI or Compound X. For that purpose, sucrose gradient-purified virus was treated with 100 μM of Compound VI and Compound X at RT. […] The virus titers were determined using standard 10× serial dilutions in a modified plaque assay. For mock-treated virus no significant changes in RSV infectivity were found even after 6 h incubation at RT (in different experiments, the reduction of titers were in the range of 0.11-0.36 Login PFU/mL).
Inactivation of RSV with different concentrations of Compound XVI at RT and 40° C. was performed as described in Example 9.

porcine parvovirus (PPV) = assay: Viral inactivation in RS, endpoint dilution assay; assay type: cell-based; settings: 100 μM, RT
Method: The porcine parvovirus (PPV) was inactivated by using compound VI and compound X. Treatments were conducted in RS (pH 6.9) at RT with 100 μM using compound VI and compound X and 10% virus spike. Residual compounds were quenched by incubation with 10 mM Na2S2O3 for 2 hours at RT. Virus titers, expressed as Log10TCID50/mL, were determined using the standard endpoint dilution assay with permissive to PPV porcine testis cells. After the incubation of indicator cells for 6 days, infected wells were counted under microscope by visual inspection. To confirm the results, secondary infection using conditioned media from the first plate wells as samples was conducted.

[11] = row 1 h, footnote c: time points were 2, 4, and 6 h (2 h)
[12] = row 3 h, footnote c: time points were 2, 4, and 6 h (4 h)

CN(CCCCN(C)CCCN1CC1)CCCN1CC1 [Compound VI, N^1,N^4-bis(3-(aziridin-1-yl)propyl)-N^1,N^4-dimethylbutane-1,4-diamine]
1.89 Log10PFU/mL: RSV titer [10, 12]
6.72 Log10CFU/mL: Titer (Y. enterocolitica [2])
below the limit of detection and BLD: RSV titer ([10]; incubation 6 h) | PPV titer (porcine parvovirus (PPV); RS pH 6.9, incubation 6 h)
2.45 Log10CFU/mL: Titer (B. cereus [4])
−: Growth / No growth (S. epidermidis [6]; LB, 100 μM) | Growth / No growth (S. epidermidis [6]; LB, 250 μM) | Growth / No growth (S. epidermidis [6]; LB, 500 μM) | Growth / No growth (S. epidermidis [6]; RBCC, 100 μM) | Growth / No growth (S. epidermidis [6]; RBCC, 250 μM) | Growth / No growth (S. epidermidis [6]; RBCC, 500 μM) | Growth / No growth (S. epidermidis [6]; WB, 100 μM) | Growth / No growth (S. epidermidis [6]; WB, 250 μM) | Growth / No growth (S. epidermidis [6]; WB, 500 μM) | Growth / No growth (Y. enterocolitica [7]; LB, 100 μM) | Growth / No growth (Y. enterocolitica [7]; LB, 250 μM) | Growth / No growth (Y. enterocolitica [7]; LB, 500 μM) | Growth / No growth (Y. enterocolitica [7]; RBCC, 100 μM) | Growth / No growth (Y. enterocolitica [7]; RBCC, 250 μM) | Growth / No growth (Y. enterocolitica [7]; RBCC, 500 μM) | Growth / No growth (Y. enterocolitica [7]; WB, 100 μM) | Growth / No growth (Y. enterocolitica [7]; WB, 250 μM) | Growth / No growth (Y. enterocolitica [7]; WB, 500 μM) | Growth / No growth (P. fluorescens [8]; LB, 100 μM) | Growth / No growth (P. fluorescens [8]; LB, 250 μM) | Growth / No growth (P. fluorescens [8]; LB, 500 μM) | Growth / No growth (P. fluorescens [8]; RBCC, 100 μM) | Growth / No growth (P. fluorescens [8]; RBCC, 250 μM) | Growth / No growth (P. fluorescens [8]; RBCC, 500 μM) | Growth / No growth (P. fluorescens [8]; WB, 100 μM) | Growth / No growth (P. fluorescens [8]; WB, 250 μM) | Growth / No growth (P. fluorescens [8]; WB, 500 μM) | Growth / No growth (B. cereus [9]; LB, 100 μM) | Growth / No growth (B. cereus [9]; LB, 250 μM) | Growth / No growth (B. cereus [9]; LB, 500 μM) | Growth / No growth (B. cereus [9]; RBCC, 250 μM) | Growth / No growth (B. cereus [9]; RBCC, 500 μM) | Growth / No growth (B. cereus [9]; WB, 250 μM) | Growth / No growth (B. cereus [9]; WB, 500 μM)
4.52 Log10PFU/mL: RSV titer [10, 11]
+: Growth / No growth (B. cereus [9]; RBCC, 100 μM) | Growth / No growth (B. cereus [9]; WB, 100 μM)
significantly higher storage stability: storage stability [5]
7.08 Log10CFU/mL: Titer (S. aureus)
4.60 Log10CFU/mL: Titer (E. coli)
2.95 Log10TCID50/mL: PPV titer (porcine parvovirus (PPV); RS pH 6.9, incubation 1 h)
8.11 Log10CFU/mL: Titer (S. epidermidis [1])
0.85 Log10TCID50/mL: PPV titer (porcine parvovirus (PPV); RS pH 6.9, incubation 3 h)
2.78 Log10CFU/mL: Titer (P. fluorescens [3])

CN(CCCCN(C)CCCN1CC1)CCCN(C)CCCN1CC1 [Compound X]
1.95 Log10PFU/mL: RSV titer ([10]; incubation 6 h)
4.85 Log10CFU/mL: Titer (Y. enterocolitica [2])
≤1.00 Log10CFU/mL: Titer (P. fluorescens [3]) | Titer (B. cereus [4])
3.98 Log10CFU/mL: Titer (E. coli)
significantly stabilized: long term storage stability ([5]; glycerol solution, addition of 0.1% of sodium hydroxide)
4.95 Log10PFU/mL: RSV titer [10, 11]
7.32 Log10CFU/mL: Titer (S. epidermidis [1])
2.72 Log10TCID50/mL: PPV titer (porcine parvovirus (PPV); RS pH 6.9, incubation 3 h)
3.09 Log10TCID50/mL: PPV titer (porcine parvovirus (PPV); RS pH 6.9, incubation 1 h)
−: Growth / No growth (S. epidermidis [6]; LB, 100 μM) | Growth / No growth (S. epidermidis [6]; LB, 250 μM) | Growth / No growth (S. epidermidis [6]; RBCC, 100 μM) | Growth / No growth (S. epidermidis [6]; RBCC, 250 μM) | Growth / No growth (S. epidermidis [6]; WB, 100 μM) | Growth / No growth (S. epidermidis [6]; WB, 250 μM) | Growth / No growth (Y. enterocolitica [7]; LB, 100 μM) | Growth / No growth (Y. enterocolitica [7]; LB, 250 μM) | Growth / No growth (Y. enterocolitica [7]; RBCC, 100 μM) | Growth / No growth (Y. enterocolitica [7]; RBCC, 250 μM) | Growth / No growth (Y. enterocolitica [7]; WB, 100 μM) | Growth / No growth (Y. enterocolitica [7]; WB, 250 μM) | Growth / No growth (P. fluorescens [8]; LB, 100 μM) | Growth / No growth (P. fluorescens [8]; LB, 250 μM) | Growth / No growth (P. fluorescens [8]; RBCC, 100 μM) | Growth / No growth (P. fluorescens [8]; RBCC, 250 μM) | Growth / No growth (P. fluorescens [8]; WB, 100 μM) | Growth / No growth (P. fluorescens [8]; WB, 250 μM) | Growth / No growth (B. cereus [9]; LB, 100 μM) | Growth / No growth (B. cereus [9]; LB, 250 μM) | Growth / No growth (B. cereus [9]; RBCC, 250 μM) | Growth / No growth (B. cereus [9]; WB, 100 μM) | Growth / No growth (B. cereus [9]; WB, 250 μM) | Growth / No growth (B. cereus [9]; WB, 500 μM)
0.78 Log10TCID50/mL: PPV titer (porcine parvovirus (PPV); RS pH 6.9, incubation 6 h)
3.48 Log10PFU/mL: RSV titer [10, 12]
6.70 Log10CFU/mL: Titer (S. aureus)
